Measurements as given in patent publication US20080045489A1, “3,4-DI-SUBSTITUTED CYCLOBUTENE-1,2-DIONES AS CXC-CHEMOKINE RECEPTOR LIGANDS” (priority 2006, published 2008).

What follows are compounds tested against T1, CXCR2 (Homo sapiens, UniProt P25025) (assay: [35S]GTPγS Binding Assay: inhibition of agonist (GROα) stimulated [35S]GTPγS exchange in membranes expressing CXCR2). Details: 1 h; 3 nM compound; Baf3/hCXCR2 membranes; percent inhibition at highest chemokine (hGROα) concentration 500 nM; control (no compound) = 0%, standard = 100%; read-out: % Inhibition GTPyS.
T1 construct: expressed in transfected cells; host or cells: Ba/F3 (Baf3) cells; membranes, clone designation [Hi70]
T1 sequence (P25025 1-360): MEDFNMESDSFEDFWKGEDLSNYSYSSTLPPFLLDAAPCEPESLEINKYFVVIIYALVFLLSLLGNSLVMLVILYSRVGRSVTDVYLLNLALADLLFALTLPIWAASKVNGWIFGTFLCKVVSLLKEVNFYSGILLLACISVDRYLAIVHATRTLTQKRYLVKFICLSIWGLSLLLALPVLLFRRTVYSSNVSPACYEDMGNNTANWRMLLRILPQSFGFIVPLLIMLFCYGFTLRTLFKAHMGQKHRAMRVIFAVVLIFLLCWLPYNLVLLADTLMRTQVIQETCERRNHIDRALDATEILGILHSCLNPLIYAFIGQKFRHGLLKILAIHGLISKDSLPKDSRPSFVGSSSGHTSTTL
Type: biochemical
Description: [^35S]GTPγS Binding Assay:
This assay measures the inhibition of agonist (GROα) stimulated guanosine 5′-[γ-^35S]triphospate ([^35S]GTPγS, triethylammonium salt) exchange in membranes expressing CXCR2.
For each assay point, 2 μg of membrane (Baf3/hCXCR22 [Hi70]), 200 μg wheat germ agglutinin-coated SPA beads (WGA-SPA; Amersham, Arlington Heights, Ill.), 3 μM guanosine 5′-diphosphate (GDP) ±3 nM compound are pre-incubated for 3 hrs at room temperature (mixing by inversion) in SPA binding buffer (50 mM TRIS-HCL, 1 mM CaCl2, 5 mM MgCl2, 50 mM NaCl, 0.002% NaN3, 0.1% BSA, 10 μg/ml saponin, pH=7.6).
The bead, membrane, compound mixture is transferred to a 96-well Isoplate (Wallac, Gaithersburg, Md.) and pre-incubated for 60 min with concentrations of chemokine (hGROα) ranging from 500 nM to 1 nM with a no chemokine sample serving as a control. The GTPγS exchange reaction was initiated by the addition of 0.1 nM [^35S]GTPγS and the incubation for 60 min at room temperature. Assay is terminated by the addition of 10 μl “Stop Solution” (0.5M Na-EDTA; 10 μM GDP).
Membrane-bound [^35S]GTPγS was measured using a 1450 Microbeta Trilux counter (Wallac, Gaithersburg, Md.). Data is calculated as percent inhibition at the highest chemokine concentration (500 nM). The control (No compound addition), which is set to 0%, versus the % inhibition of the standard, which is set at 100%. The standard used is: [drawing 19]
In the case of `CC[C@@H](Nc1c(Nc2cccc(C(=O)N(C)C)c2O)c(=O)c1=O)c1cc(Br)c(C)o1` [Compound 3, 3-[[2-[[1(R)-(4-BROMO-5-METHYL-2- FURANYL)PROPYL]AMINO]-3,4-DIOXO- 1-CYCLOBUTEN-1-YL]AMINO]-2- HYDROXY-N,N-DIMETHYLBENZAMIDE], the inhibition at 0.003 µM is reported as 122%. Work on `CC[C@@H](Nc1c(Nc2cccc(C(=O)N(C)C)c2O)c(=O)c1=O)c1cc(C2CCCC2)c(C)o1` [Compound 11, 3-[[2-[[1(R)-(4-CYCLOPENTYL-5- METHYL-2-FURANYL)PROPYL]AMINO]- 3,4-DIOXO-1-CYCLOBUTEN-1-YL]- AMINO]-2-HYDROXY-N,N-DIMETHYL- BENZAMIDE] yielded an inhibition at 0.003 µM of 109%. In the case of `CC[C@@H](Nc1c(Nc2cccc(C(=O)N3CCOCC3)c2O)c(=O)c1=O)c1cc(Br)c(C)o1` [Compound 7, 4-[3-[[2-[[1(R)-(4-BROMO-5-METHYL-2- FURANYL)PROPYL]AMINO]-3,4-DIOXO- 1-CYCLOBUTEN-1-YL]AMINO]-2- HYDROXYBENZOYL]MORPHOLINE], the inhibition at 0.003 µM is reported as 114%. Compound `CC[C@@H](Nc1c(Nc2cccc(C(=O)N3CCC3)c2O)c(=O)c1=O)c1cc(C(C)C)c(C)o1` [Compound 17, 1-[2-HYDROXY-3-[[2-[[1(R)-[5-METHYL- 4-(1-METHYLETHYL)-2-FURANYL]- PROPYL]AMINO]-3,4-DIOXO-1- CYCLOBUTEN-1-YL]AMINO]- BENZOYL]AZETIDINE] has an inhibition at 0.003 µM of 100%. `CC[C@@H](Nc1c(Nc2cccc(C(=O)N(C)C)c2O)c(=O)c1=O)c1cc(Cl)c(C)o1` [Compound 4, 3-[[2-[[1(R)-(4-CHLORO-5-METHYL-2- FURANYL)PROPYL]AMINO]-3,4-DIOXO- 1-CYCLOBUTEN-1-YL]AMINO]-2- HYDROXY-N,N-DIMETHYLBENZAMIDE] was tested, and the inhibition at 0.003 µM was 120%. In the case of `CC[C@@H](Nc1c(Nc2cccc(C(=O)N(C)C)c2O)c(=O)c1=O)c1cc(C(C)C)c(Br)o1` [Compound 10, 3-[[2-[[1(R)-[5-BROMO-4-(1-METHYL- ETHYL)-2-FURANYL]PROPYL]AMINO]- 3,4,-DIOXO-1-CYCLOBUTEN-1-YL]- AMINO]-2-HYDROXY-N,N-DIMETHYL- BENZAMIDE], the inhibition at 0.003 µM is reported as 109%. For `CC[C@@H](Nc1c(Nc2cccc(C(=O)N3CC[C@@H](O)C3)c2O)c(=O)c1=O)c1cc(Br)c(C)o1` [Compound 16, 1-[3-[[2-[[1(R)-(4-BROMO-5-METHYL-2- FURANYL)PROPYL]AMINO]-3,4-DIOXO- 1-CYCLOBUTEN-1-YL]AMINO]-2- HYDROXYBENZOYL]-3(R)- PYRROLIDINOL], the inhibition at 0.003 µM was 101%. Work on `CC[C@@H](Nc1c(Nc2cccc(C(=O)N(C)C)c2O)c(=O)c1=O)c1cc(C(C)C)c(C2CC2)o1` [Compound 13, 3-[[2-[[1(R)-[5-CYCLOPROPYL-4-(1- METHYLETHYL)-2-FURANYL]PROPYL]- AMINO]-3,4-DIOXO-1-CYCLOBUTEN-1- YL]AMINO]-2-HYDROXY-N,N- DIMETHYLBENZAMIDE] yielded an inhibition at 0.003 µM of 105%. Work on `CC[C@@H](Nc1c(Nc2cccc(C(=O)N3CC[C@H](O)C3)c2O)c(=O)c1=O)c1cc(Br)c(C)o1` [Compound 5, 1-[3-[[2-[[1(R)-(4-BROMO-5-METHYL-2- FURANYL)PROPYL]AMINO]-3,4-DIOXO- 1-CYCLOBUTEN-1-YL]AMINO]-2- HYDROXYBENZOYL]-3(S)- PYRROLIDINOL] yielded an inhibition at 0.003 µM of 119%. In the case of `CC[C@@H](Nc1c(Nc2cccc(C(=O)N3CCC3)c2O)c(=O)c1=O)c1cc(C2CC2)c(C)o1` [Compound 6, 1-[3-[[2-[[1(R)-(4-CYCLOPROPYL-5- METHYL-2-FURANYL)PROPYL]AMINO]- 3,4-DIOXO-1-CYCLOBUTEN-1- YL]AMINO]-2-HYDROXYBENZOYL]- AZETIDINE], the inhibition at 0.003 µM is reported as 115%. With `CC[C@@H](Nc1c(Nc2cccc(C(=O)N3CCOCC3)c2O)c(=O)c1=O)c1cc(C2CC2)c(C)o1` [Compound 14, 4-[3-[[2-[[1(R)-(4-CYCLOPROPYL-5- METHYL-2-FURANYL)PROPYL]AMINO]- 3,4-DIOXO-1-CYCLOBUTEN-1-YL]- AMINO]-2-HYDROXYBENZOYL]- MORPHOLINE] the inhibition at 0.003 µM was 103%. Compound `CCc1oc([C@@H](CC)Nc2c(Nc3cccc(C(=O)N(C)C)c3O)c(=O)c2=O)cc1Br` [Compound 18, 3-[[2-[[1(R)-(4-BROMO-5-ETHYL-2- FURANYL)PROPYL]AMINO]-3,4-DIOXO- 1-CYCLOBUTEN-1-YL]AMINO]-2- HYDROXY-N,N-DIMETHYLBENZAMIDE] has an inhibition at 0.003 µM of 99%. Work on `CC[C@@H](Nc1c(Nc2cccc(C(=O)N3CCCC3)c2O)c(=O)c1=O)c1cc(C(C)C)c(C)o1` [Compound 2, 1-[2-HYDROXY-3-[[2-[[1(R)-[5-METHYL- 4-(1-METHYLETHYL)-2-FURANLY]- PROPYL]AMINO]-3,4-DIOXO-1- CYCLOBUTEN-1-YL]AMINO]-BENZOYL]PYRROLIDINE] yielded an inhibition at 0.003 µM of 132%. `CC[C@@H](Nc1c(Nc2cccc(C(=O)N3CCOCC3)c2O)c(=O)c1=O)c1cc(C(C)C)c(C)o1` [Compound 1, 4-[2-HYDROXY-3-[[2-[[1(R)-[5-METHYL- 4-(1-METHYLETHYL)-2-FURANYL]- PROPYL]AMINO]-3,4-DIOXO-1- CYCLOBUTEN-1-YL]AMINO]BENZOYL]- MORPHOLINE] gave an inhibition at 0.003 µM of 137%. Compound `CC[C@@H](Nc1c(Nc2cccc(C(=O)N(C)C)c2O)c(=O)c1=O)c1cc(C2CC2)c(C)o1` [Compound 12, 3-[[2-[[1(R)-(4-CYCLOPROPYL-5- METHYL-2-FURANYL)PROPYL]AMINO]- 3,4-DIOXO-1-CYCLOBUTEN-1-YL]- AMINO]-2-HYDROXY-N,N-DIMETHYL- BENZAMIDE] has an inhibition at 0.003 µM of 107%. For `CC[C@@H](Nc1c(Nc2cccc(C(=O)N(C)C)c2O)c(=O)c1=O)c1cc(C(C)C)c(C)o1` [Compound 8, 2-HYDROXY-N,N-DIMETHYL-3-[[2- [[1(R)-[5-METHYL-4-(1-METHYLETHYL)- 2-FURANYL]PROPYL]AMINO]-3,4- DIOXO-1-CYCLOBUTEN-1-YL]AMINO]- BENZAMIDE], the inhibition at 0.003 µM was 112%. Compound `CC[C@@H](Nc1c(Nc2cccc(C(=O)N3CCCC3)c2O)c(=O)c1=O)c1cc(Br)c(C)o1` [Compound 9, 1-[3-[[2-[[1(R)-(4-BROMO-5-METHYL-2- FURANYL)PROPYL]AMINO]-3,4-DIOXO- 1-CYCLOBUTEN-1-YL]AMINO]-2- HYDROXYBENZOYL]PYRROLIDINE] has an inhibition at 0.003 µM of 110%. In the case of `CCc1oc([C@@H](CC)Nc2c(Nc3cccc(C(=O)N4CCC4)c3O)c(=O)c2=O)cc1Br` [Compound 15, 1-[3-[[2-[[1(R)-(4-BROMO-5-ETHYL-2- FURANYL)PROPYL]AMINO]-3,4-DIOXO- 1-CYCLOBUTEN-1-YL]AMINO]-2- HYDROXYBENZOYL]AZETIDINE], the inhibition at 0.003 µM is reported as 103%.
